From article PMC7321251 (Molecules, 2020)

What was measured:
SK2 = molecular target: SK2; set-up: method as in PMID 21940750; details: cited from earlier work
SPHK1 = molecular target: T1, SPHK1 (Homo sapiens, UniProt Q9NYA1); experiment: Sphingosine kinase 1 activity assay (Adapta screening system); type: biochemical; details: 20 μM compound; for inhibition at 20 µM: read-out: SK1 inhibition; for SK1 inhibitory effect (in words): compared with PF-543
T1 construct: purchased Thermo Fisher Scientific

[1] = Liver microsomal stability, dog (DLM); type: in vitro ADME; details: dog liver microsomes, NADPH
Experimental: [Worded in the source for another species; this species is reported under the same test.] (§1) Microsomal incubations were conducted in triplicate in 0.1 M potassium phosphate buffer (pH 7.4) in a clean 1.5 mL eppendorf tube. […] HLM was added and the mixture was pre-incubated at 37 °C in a shaking incubator at approximately 350 rpm for 5 min under Thermo mixer (Eppendorf., Hamburg, Germany). Reactions were initiated by the addition of 1 mM NADPH and were then quenched by adding 40 µL of ice-cold acetonitrile containing 10 µM chlorproamide (CPP) as an internal standard at 0, 30 min. The incubation mixtures were then centrifuged at 15,000× g for 5 min at 4 °C. A 2 µL aliquot of the supernatant was directly injected into the LC-MS/MS system. The LC-MS/MS system consisted of the Nexera XR HPLC system (Shimadzu Co., Kyoto, Japan) coupled to the TSQ Vantage triple quadrupole mass spectrometer equipped with Xcalibur version 1.1.1 (Thermo Fisher Scientific Inc., Waltham, MA, USA).

[2] = Liver microsomal stability, rat (RLM); type: in vitro ADME; details: rat liver microsomes, NADPH
Experimental: [Worded in the source for another species; this species is reported under the same test.] as §1

[3] = Liver microsomal stability, mouse (MLM); type: in vitro ADME; details: mouse liver microsomes, NADPH
Experimental: [Worded in the source for another species; this species is reported under the same test.] as §1

[4] = Liver microsomal stability, human (HLM); type: in vitro ADME; details: human liver microsomes, NADPH
Experimental: as §1

SPHK2 = molecular target: T2, SPHK2 (Homo sapiens, UniProt Q9NRA0); experiment: Sphingosine kinase 2 activity assay (Adapta screening system); type: biochemical; details: 20 μM compound
T2 construct: purchased Thermo Fisher Scientific
T2 sequence (Q9NRA0 1-654): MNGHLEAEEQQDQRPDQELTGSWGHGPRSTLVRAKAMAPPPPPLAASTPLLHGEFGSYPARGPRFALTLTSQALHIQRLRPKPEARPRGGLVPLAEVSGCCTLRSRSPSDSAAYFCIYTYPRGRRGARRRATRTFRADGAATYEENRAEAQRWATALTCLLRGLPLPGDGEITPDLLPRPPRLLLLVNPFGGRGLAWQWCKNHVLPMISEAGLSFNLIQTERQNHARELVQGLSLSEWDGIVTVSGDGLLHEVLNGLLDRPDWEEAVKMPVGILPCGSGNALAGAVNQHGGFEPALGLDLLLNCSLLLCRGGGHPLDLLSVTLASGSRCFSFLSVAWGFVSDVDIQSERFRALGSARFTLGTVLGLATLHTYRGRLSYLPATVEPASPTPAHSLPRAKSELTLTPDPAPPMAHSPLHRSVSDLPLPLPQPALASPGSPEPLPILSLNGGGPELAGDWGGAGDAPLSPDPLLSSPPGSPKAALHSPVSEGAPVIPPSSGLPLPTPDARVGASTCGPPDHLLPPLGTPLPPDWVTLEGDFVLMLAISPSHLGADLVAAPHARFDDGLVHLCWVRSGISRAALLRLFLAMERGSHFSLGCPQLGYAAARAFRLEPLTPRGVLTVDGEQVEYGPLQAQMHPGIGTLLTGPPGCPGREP
Experimental: […]. The sphingosine kinase 1 activity assay used 0.04–0.16 ng SPHK1, 50 μM sphingosine lipid substrate in 32.5 mM HEPES pH 7.5, 0.005% BRIJ 35, 5 mM MgCl2, 0.5 mM ethylene glycol-bis(β-aminoethyl ether)-N,N,N′,N′-tetraacetic acid (EGTA). The sphingosine kinase 2 activity assay detected 35 - 140 ng SPHK2, 50 μM sphingosine lipid substrate in 32.5 mM HEPES pH 7.5, 0.5 mM EGTA, 1.5 mM MgCl2.

T1 sequence (Q9NYA1 whole entry): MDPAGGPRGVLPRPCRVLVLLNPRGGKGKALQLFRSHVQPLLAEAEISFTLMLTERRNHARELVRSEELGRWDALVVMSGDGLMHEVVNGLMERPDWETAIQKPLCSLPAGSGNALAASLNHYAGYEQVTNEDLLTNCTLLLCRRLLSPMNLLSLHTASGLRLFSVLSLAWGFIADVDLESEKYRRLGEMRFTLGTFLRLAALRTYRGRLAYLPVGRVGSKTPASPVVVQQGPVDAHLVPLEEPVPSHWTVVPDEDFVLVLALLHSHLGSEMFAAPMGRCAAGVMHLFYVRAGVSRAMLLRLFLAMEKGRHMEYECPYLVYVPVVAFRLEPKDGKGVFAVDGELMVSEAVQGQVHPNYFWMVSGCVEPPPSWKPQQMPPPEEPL

inhibition at 20 µM (SPHK1)	SK1 inhibitory effect (in words) (SPHK1)	Structure (SMILES)	further results
		CCCCCCCCc1ccc(CC[C@@](N)(CO)COC)cc1 [ROME, (R)-FTY720-OMe]	Ki (SK2): 16 µM
100%		O=S(=O)(Cc1cccc(OCc2ccc(CN3CCC[C@@H]3CO)cc2)c1)c1ccccc1 [compound 2, (R)-(1-(4-((3-((Phenylsulfonyl)methyl)phenoxy)methyl)benzyl)pyrrolidin-2-yl)methanol]	
100%		O=S(=O)(Cc1cccc(OCc2ccc(CN3CC[C@H](O)C3)cc2)c1)c1ccccc1 [compound 3, (S)-1-(4-((3-((Phenylsulfonyl)methyl)phenoxy)methyl)benzyl)pyrrolidin-3-ol]	
	reduced	O=S(=O)(Cc1cccc(OCc2ccc(CN3CCC(O)CC3)cc2)c1)c1ccccc1 [compound 4, 1-(4-((3-((Phenylsulfonyl)methyl)phenoxy)methyl)benzyl)piperidin-4-ol]	
100%		O=S(=O)(Cc1cc(F)cc(OCc2ccc(CN3CCC[C@@H]3CO)cc2)c1)c1ccccc1 [compound 5, (R)-(1-(4-((3-Fluoro-5-((phenylsulfonyl)methyl)phenoxy)methyl)benzyl)pyrrolidin-2-yl)methanol]	DLM microsomal stability (% remaining during 30 min) [1]: 5.5 % remaining; RLM microsomal stability (% remaining during 30 min) [2]: 6.8 % remaining; MLM microsomal stability (% remaining during 30 min) [3]: 9.8 % remaining; HLM microsomal stability (% remaining during 30 min) [4]: 7.6 % remaining
100%		O=S(=O)(Cc1cc(F)cc(OCc2ccc(CN3CC[C@H](O)C3)cc2)c1)c1ccccc1 [compound 6, (S)-1-(4-((3-fluoro-5-((phenylsulfonyl)methyl)phenoxy)methyl)benzyl)pyrrolidin-3-ol]	
	reduced	O=S(=O)(Cc1cc(F)cc(OCc2ccc(CN3CCC(O)CC3)cc2)c1)c1ccccc1 [compound 7, 1-(4-((3-Fluoro-5-((phenylsulfonyl)methyl)phenoxy)methyl)benzyl)piperidin-4-ol]	
		O=S(=O)(Cc1cc(O)cc(OCc2ccc(CN3CCC[C@@H]3CO)cc2)c1)c1ccccc1 [compound 8, (R)-3-((4-((2-(Hydroxymethyl)pyrrolidin-1-yl)methyl)benzyl)oxy)-5-((phenylsulfonyl)methyl)phenol]	SK2 inhibitory effect (in words) (SPHK2): showed an inhibitory effect against SK2 alone
	reduced	O=S(=O)(Cc1cc(O)cc(OCc2ccc(CN3CCC(O)CC3)cc2)c1)c1ccccc1 [compound 10, 1-(4-((3-Hydroxy-5-((phenylsulfonyl)methyl)phenoxy)methyl)benzyl)piperidin-4-ol]	
